How the values were obtained:
[1] = biological target: Cytoplasmic tyrosine-protein kinase BMX (Homo sapiens) (UniProt P51813); assay: Inhibition of BMX at 10 uM
[2] = biological target: Serine/threonine-protein kinase pim-3 (Homo sapiens) (UniProt Q86V86); assay: Inhibition of PIM3 at 10 uM
[3] = biological target: Serine/threonine-protein kinase PAK 1 (Homo sapiens) (UniProt Q13153); assay: Inhibition of PAK1 at 10 uM
[4] = biological target: Tyrosine-protein kinase JAK2 (Homo sapiens) (UniProt O60674); assay: Inhibition of JAK2 at 10 uM
[5] = biological target: High affinity nerve growth factor receptor (Homo sapiens) (UniProt P04629); assay: Inhibition of TRKA at 10 uM
Sequence of High affinity nerve growth factor receptor (Homo sapiens) (P04629 33-796 limits assumed): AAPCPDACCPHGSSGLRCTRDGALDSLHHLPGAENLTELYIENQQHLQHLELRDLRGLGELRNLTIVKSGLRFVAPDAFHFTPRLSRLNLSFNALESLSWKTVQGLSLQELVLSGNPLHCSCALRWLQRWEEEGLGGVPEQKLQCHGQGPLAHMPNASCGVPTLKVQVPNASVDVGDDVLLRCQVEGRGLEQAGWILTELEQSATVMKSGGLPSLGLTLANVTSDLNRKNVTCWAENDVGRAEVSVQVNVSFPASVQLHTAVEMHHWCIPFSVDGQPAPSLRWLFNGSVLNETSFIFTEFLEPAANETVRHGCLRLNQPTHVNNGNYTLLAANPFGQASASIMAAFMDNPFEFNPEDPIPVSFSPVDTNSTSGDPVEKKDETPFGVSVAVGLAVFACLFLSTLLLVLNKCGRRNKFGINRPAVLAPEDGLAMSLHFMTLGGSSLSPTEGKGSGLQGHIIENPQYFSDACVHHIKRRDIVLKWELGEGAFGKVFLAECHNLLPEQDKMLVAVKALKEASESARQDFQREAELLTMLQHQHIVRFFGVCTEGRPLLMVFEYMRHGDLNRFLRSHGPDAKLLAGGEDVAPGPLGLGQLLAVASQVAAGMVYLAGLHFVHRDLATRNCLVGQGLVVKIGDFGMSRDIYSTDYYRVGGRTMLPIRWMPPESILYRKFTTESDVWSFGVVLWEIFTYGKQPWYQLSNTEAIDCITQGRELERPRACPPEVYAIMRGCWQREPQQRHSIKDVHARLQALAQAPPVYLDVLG

[6] = system: Mast/stem cell growth factor receptor Kit (Homo sapiens), P10721 [V560G]; assay: Inhibition of KIT V560G mutant at 10 uM
[7] = biological target: Ephrin type-A receptor 4 (Homo sapiens) (UniProt P54764); assay: Inhibition of EPHA4 at 10 uM
Sequence of Ephrin type-A receptor 4 (Homo sapiens) (P54764 whole entry): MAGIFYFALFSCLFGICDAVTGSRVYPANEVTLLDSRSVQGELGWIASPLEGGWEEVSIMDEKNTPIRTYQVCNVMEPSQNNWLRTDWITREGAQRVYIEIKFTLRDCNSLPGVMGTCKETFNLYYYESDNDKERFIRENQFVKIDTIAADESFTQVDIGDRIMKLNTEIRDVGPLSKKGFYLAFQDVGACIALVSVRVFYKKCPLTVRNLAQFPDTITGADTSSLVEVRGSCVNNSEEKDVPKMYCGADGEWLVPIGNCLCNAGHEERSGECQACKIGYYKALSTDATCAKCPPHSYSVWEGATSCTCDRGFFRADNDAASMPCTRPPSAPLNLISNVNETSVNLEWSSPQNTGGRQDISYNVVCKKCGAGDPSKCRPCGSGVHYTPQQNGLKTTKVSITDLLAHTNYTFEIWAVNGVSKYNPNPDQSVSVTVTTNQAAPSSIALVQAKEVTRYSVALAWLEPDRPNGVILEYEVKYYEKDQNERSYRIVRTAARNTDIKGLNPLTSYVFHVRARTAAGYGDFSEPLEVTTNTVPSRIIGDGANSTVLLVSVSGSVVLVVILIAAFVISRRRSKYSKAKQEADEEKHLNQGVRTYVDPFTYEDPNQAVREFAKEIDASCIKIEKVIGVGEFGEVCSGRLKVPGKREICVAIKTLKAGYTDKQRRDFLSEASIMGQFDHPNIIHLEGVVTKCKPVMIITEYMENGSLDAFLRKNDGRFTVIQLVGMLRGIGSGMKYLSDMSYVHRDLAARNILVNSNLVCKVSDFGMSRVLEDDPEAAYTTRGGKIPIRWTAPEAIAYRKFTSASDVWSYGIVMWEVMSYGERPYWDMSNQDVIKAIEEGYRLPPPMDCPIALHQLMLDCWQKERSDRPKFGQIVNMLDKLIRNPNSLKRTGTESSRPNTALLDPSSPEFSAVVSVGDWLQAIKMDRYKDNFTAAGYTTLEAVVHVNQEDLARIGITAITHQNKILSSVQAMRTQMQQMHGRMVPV

[8] = biological target: Serine/threonine-protein kinase Nek1 (Homo sapiens) (UniProt Q96PY6); assay: Inhibition of NEK1 at 10 uM
[9] = biological target: Mitogen-activated protein kinase kinase kinase 12 (Homo sapiens) (UniProt Q12852); assay: Inhibition of DLK at 10 uM
[10] = biological target: Serine/threonine-protein kinase PAK 4 (Homo sapiens) (UniProt O96013); assay: Inhibition of PAK4 at 10 uM
[11] = biological target: Dual specificity protein kinase CLK3 (Homo sapiens) (UniProt P49761); assay: Inhibition of CLK3 at 10 uM
[12] = biological target: Receptor tyrosine-protein kinase erbB-2 (Homo sapiens) (UniProt P04626); assay: Inhibition of HER2 at 10 uM
[13] = biological target: NPM/ALK (Nucleophosmin/ALK tyrosine kinase receptor) (Homo sapiens) (UniProt Q9UM73+P06748); assay: Inhibition of NPM1-ALK at 10 uM; type: protein-complex assay
[14] = biological target: AMP-activated protein kinase (AMPK) alpha-1/beta-1/gamma-1 (Homo sapiens) (UniProt P54619+Q9Y478+Q13131); assay: Inhibition of AMPKalpha1/beta1/gamma1 at 10 uM; type: protein-complex assay
[15] = biological target: Serine/threonine-protein kinase PLK2 (Homo sapiens) (UniProt Q9NYY3); assay: Inhibition of PLK2 at 10 uM
Sequence of Serine/threonine-protein kinase PLK2 (Homo sapiens) (Q9NYY3 whole entry, looked up): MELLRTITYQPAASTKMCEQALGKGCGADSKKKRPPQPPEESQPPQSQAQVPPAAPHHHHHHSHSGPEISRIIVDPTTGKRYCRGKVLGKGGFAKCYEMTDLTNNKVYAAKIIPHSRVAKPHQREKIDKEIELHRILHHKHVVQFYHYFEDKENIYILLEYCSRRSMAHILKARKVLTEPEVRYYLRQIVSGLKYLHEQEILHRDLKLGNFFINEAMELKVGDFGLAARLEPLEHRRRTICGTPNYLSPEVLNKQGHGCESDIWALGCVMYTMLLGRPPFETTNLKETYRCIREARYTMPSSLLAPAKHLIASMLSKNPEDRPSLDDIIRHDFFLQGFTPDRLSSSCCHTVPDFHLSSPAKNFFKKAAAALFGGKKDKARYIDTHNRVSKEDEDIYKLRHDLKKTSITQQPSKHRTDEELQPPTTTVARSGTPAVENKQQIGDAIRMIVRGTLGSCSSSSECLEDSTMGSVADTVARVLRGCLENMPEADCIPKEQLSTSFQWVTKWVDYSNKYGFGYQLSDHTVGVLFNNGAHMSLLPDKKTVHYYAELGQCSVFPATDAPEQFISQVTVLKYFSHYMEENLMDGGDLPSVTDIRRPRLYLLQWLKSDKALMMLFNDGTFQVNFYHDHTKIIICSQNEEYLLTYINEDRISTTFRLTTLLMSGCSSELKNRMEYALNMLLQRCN

[16] = biological target: Serine/threonine-protein kinase DCLK2 (Homo sapiens) (UniProt Q8N568); assay: Inhibition of DCAMKL2 at 10 uM
[17] = biological target: Serine/threonine-protein kinase D2 (Homo sapiens) (UniProt Q9BZL6); assay: Inhibition of PKD2 at 10 uM
Sequence of Serine/threonine-protein kinase D2 (Homo sapiens) (Q9BZL6 whole entry): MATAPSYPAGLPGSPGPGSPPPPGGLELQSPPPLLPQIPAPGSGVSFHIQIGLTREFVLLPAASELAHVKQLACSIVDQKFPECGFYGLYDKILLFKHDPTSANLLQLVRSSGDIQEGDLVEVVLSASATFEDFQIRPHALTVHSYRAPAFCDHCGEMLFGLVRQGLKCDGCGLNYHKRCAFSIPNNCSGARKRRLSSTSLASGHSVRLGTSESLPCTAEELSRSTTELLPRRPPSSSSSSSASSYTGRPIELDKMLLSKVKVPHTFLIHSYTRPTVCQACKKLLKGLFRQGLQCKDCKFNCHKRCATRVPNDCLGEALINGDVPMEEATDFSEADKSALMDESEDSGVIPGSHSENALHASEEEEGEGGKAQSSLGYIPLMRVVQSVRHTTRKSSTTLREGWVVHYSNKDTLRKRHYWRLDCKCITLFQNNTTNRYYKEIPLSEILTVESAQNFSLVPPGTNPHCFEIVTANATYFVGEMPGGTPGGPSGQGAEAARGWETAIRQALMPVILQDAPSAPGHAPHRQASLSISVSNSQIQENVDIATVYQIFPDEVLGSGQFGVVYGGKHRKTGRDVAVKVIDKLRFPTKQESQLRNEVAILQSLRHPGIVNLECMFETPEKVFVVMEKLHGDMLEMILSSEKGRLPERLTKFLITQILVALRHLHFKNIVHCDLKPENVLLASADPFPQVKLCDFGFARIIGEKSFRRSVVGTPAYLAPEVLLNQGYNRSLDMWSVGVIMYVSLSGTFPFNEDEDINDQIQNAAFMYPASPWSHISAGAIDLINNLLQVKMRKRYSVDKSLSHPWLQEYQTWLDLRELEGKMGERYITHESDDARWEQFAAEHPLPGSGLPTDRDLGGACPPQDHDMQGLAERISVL

[18] = biological target: Serine/threonine-protein kinase TAO2 (Homo sapiens) (UniProt Q9UL54); assay: Inhibition of TAOK2 at 10 uM
[19] = biological target: Dual specificity protein kinase CLK2 (Homo sapiens) (UniProt P49760); assay: Inhibition of CLK2 at 10 uM
[20] = biological target: Homeodomain-interacting protein kinase 4 (Homo sapiens) (UniProt Q8NE63); assay: Inhibition of HIPK4 at 10 uM
Liver = assay: Half life in mouse liver microsome at 3 uM; type: ADME; conditions: microsomes
[21] = biological target: Homeodomain-interacting protein kinase 2 (Homo sapiens) (UniProt Q9H2X6); assay: Inhibition of HIPK2 at 10 uM
[22] = biological target: Serine/threonine-protein kinase PLK4 (Homo sapiens) (UniProt O00444); assay: Inhibition of PLK4 at 10 uM
[23] = biological target: Calcium/calmodulin-dependent protein kinase type II subunit alpha (Homo sapiens) (UniProt Q9UQM7); assay: Inhibition of CaMK2a at 10 uM
[24] = biological target: Tyrosine-protein kinase Fyn (Homo sapiens) (UniProt P06241); assay: Inhibition of FYN at 10 uM
Sequence of Tyrosine-protein kinase Fyn (Homo sapiens) (P06241 2-537 limits assumed): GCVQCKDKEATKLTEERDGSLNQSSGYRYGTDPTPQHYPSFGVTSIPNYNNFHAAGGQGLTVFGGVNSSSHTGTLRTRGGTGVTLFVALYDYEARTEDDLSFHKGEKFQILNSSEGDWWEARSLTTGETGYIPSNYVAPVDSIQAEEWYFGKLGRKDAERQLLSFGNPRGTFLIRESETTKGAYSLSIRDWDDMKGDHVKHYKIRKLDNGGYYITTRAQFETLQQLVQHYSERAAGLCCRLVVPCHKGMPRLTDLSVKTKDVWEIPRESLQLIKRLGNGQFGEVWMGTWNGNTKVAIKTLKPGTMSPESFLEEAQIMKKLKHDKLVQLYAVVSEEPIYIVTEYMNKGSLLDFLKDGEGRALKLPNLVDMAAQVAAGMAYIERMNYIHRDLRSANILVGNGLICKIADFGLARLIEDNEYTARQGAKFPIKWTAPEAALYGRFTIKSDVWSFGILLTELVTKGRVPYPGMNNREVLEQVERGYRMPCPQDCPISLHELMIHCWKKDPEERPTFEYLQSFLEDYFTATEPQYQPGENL

[25] = biological target: ALK tyrosine kinase receptor (Homo sapiens) (UniProt Q9UM73); assay: Inhibition of ALK at 10 uM
[26] = biological target: Fibroblast growth factor receptor 2 (Homo sapiens) (UniProt P21802); assay: Inhibition of FGFR2 at 10 uM
[27] = biological target: Protein kinase C theta type (Homo sapiens) (UniProt Q04759); assay: Inhibition of PKCq at 10 uM
[28] = biological target: SRSF protein kinase 3 (Homo sapiens) (UniProt Q9UPE1); assay: Inhibition of MSSK1 (SRPK3) at 10 uM
[29] = biological target: Serine/threonine-protein kinase 4 (Homo sapiens) (UniProt Q13043); assay: Inhibition of MST1 at 10 uM
[30] = system: Epidermal growth factor receptor (Homo sapiens), P00533 [L861Q]; assay: Inhibition of EGFR L861Q mutant at 10 uM; type: protein assay
[31] = biological target: Mitogen-activated protein kinase kinase kinase 9 (Homo sapiens) (UniProt P80192); assay: Inhibition of MLK1 at 10 uM
[32] = biological target: Mitogen-activated protein kinase 10 (Homo sapiens) (UniProt P53779); assay: Inhibition of JNK3 at 10 uM
[33] = biological target: Dual specificity mitogen-activated protein kinase kinase 5 (Homo sapiens) (UniProt Q13163); assay: Inhibition of MAP2K5 at 10 uM
Sequence of Dual specificity mitogen-activated protein kinase kinase 5 (Homo sapiens) (Q13163 whole entry): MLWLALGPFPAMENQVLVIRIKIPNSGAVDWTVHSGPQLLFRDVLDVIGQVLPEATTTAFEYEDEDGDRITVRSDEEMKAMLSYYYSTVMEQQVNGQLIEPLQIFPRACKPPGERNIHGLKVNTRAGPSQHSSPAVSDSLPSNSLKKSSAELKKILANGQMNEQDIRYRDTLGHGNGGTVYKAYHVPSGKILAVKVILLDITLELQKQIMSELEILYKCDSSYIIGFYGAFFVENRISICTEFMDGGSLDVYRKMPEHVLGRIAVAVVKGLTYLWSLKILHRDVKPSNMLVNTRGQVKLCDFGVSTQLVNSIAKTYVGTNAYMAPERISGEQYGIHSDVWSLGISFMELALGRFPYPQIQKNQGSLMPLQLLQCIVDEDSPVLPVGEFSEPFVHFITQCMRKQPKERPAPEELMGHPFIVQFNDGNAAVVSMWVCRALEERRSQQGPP

[34] = biological target: Mitogen-activated protein kinase 8 (Homo sapiens) (UniProt P45983); assay: Inhibition of JNK1 at 10 uM
[35] = biological target: LIM domain kinase 1 (Homo sapiens) (UniProt P53667); assay: Inhibition of LIMK1 at 10 uM
[36] = system: Platelet-derived growth factor receptor alpha (Homo sapiens), P16234 [V561D]; assay: Inhibition of PDGFRa V561D mutant at 10 uM
[37] = biological target: Fibroblast growth factor receptor 4 (Homo sapiens) (UniProt P22455); assay: Inhibition of FGFR4 at 10 uM
[38] = biological target: Serine/threonine-protein kinase Sgk1 (Homo sapiens) (UniProt O00141); assay: Inhibition of SGK at 10 uM
[39] = biological target: RAC-gamma serine/threonine-protein kinase (Homo sapiens) (UniProt Q9Y243); assay: Inhibition of AKT3 at 10 uM
Sequence of RAC-gamma serine/threonine-protein kinase (Homo sapiens) (Q9Y243 whole entry): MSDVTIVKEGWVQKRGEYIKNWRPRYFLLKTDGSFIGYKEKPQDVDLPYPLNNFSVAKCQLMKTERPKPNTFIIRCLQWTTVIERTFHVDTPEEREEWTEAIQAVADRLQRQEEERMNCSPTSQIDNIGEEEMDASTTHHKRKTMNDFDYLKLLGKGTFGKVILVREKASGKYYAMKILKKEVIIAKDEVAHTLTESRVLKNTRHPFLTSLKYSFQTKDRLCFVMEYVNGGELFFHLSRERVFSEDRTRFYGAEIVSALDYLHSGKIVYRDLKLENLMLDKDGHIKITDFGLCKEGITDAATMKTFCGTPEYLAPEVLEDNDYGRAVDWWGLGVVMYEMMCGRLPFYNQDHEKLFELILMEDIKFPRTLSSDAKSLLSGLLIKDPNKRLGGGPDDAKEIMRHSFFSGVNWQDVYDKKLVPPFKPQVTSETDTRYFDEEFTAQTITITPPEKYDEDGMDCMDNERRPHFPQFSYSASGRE

[40] = biological target: Receptor tyrosine-protein kinase erbB-4 (Homo sapiens) (UniProt Q15303); assay: Inhibition of HER4 at 10 uM
[41] = biological target: Casein kinase I isoform gamma-3 (Homo sapiens) (UniProt Q9Y6M4); assay: Inhibition of CK1g3 at 10 uM
[42] = biological target: Non-receptor tyrosine-protein kinase TYK2 (Homo sapiens) (UniProt P29597); assay: Inhibition of TYK2 at 10 uM
[43] = biological target: Mitogen-activated protein kinase kinase kinase kinase 2 (Homo sapiens) (UniProt Q12851); assay: Inhibition of MAP4K2 at 10 uM
[44] = biological target: MAP kinase-interacting serine/threonine-protein kinase 2 (Homo sapiens) (UniProt Q9HBH9); assay: Inhibition of MNK2 at 10 uM
[45] = biological target: Serine/threonine-protein kinase Nek9 (Homo sapiens) (UniProt Q8TD19); assay: Inhibition of NEK9 at 10 uM
[46] = biological target: Tyrosine-protein kinase SYK (Homo sapiens) (UniProt P43405); assay: Inhibition of SYK at 10 uM

In the case of `COc1ccc2c3ccnc(C(F)(F)F)c3n(CCCCN)c2c1`, the inhibition [1] was 3%, the inhibition [2] was 89% and the inhibition [3] was 3%. The inhibition [4] was 0%, the inhibition [5] was 8% and the inhibition [6] was 16%. It also gave an inhibition [7] of 0%, an inhibition [8] of 5% and an inhibition [9] of 3%. It also gave an inhibition [10] of 13%, an inhibition [11] of 37% and an inhibition [12] of 0%. The inhibition [13] was 4%, the inhibition [14] was 16% and the inhibition [15] was 15%. For the same molecule, the inhibition [16] was 4%, the inhibition [17] was 84% and the inhibition [18] was 4%. For the same molecule, the inhibition [19] was 99%, the inhibition [20] was 28% and the t1/2 (Liver) was 5.68 h. It also gave an inhibition [21] of 53%, an inhibition [22] of 22% and an inhibition [23] of 53%. The inhibition [24] was 8%, the inhibition [25] was 5% and the inhibition [26] was 0%. For the same molecule, the inhibition [27] was 42%, the inhibition [28] was 7% and the inhibition [29] was 14%. For the same molecule, the inhibition [30] was 6%, the inhibition [31] was 0% and the inhibition [32] was 17%. For the same molecule, the inhibition [33] was 1%, the inhibition [34] was 44% and the inhibition [35] was 8%. The inhibition [36] was 31%, the inhibition [37] was 6% and the inhibition [38] was 34%. For the same molecule, the inhibition [39] was 12%, the inhibition [40] was 25% and the inhibition [41] was 53%. For the same molecule, the inhibition [42] was 15%, the inhibition [43] was 75% and the inhibition [44] was 34%. The inhibition [45] was 0% and the inhibition [46] was 0%.

From ChEMBL document CHEMBL2010722, “Structure-activity relationship study of beta-carboline derivatives as haspin kinase inhibitors” (Bioorg Med Chem Lett, 2012)
